Experimental data taken from publication PMC4816952, “[^18F]FE@SNAP—a specific PET tracer for melanin-concentrating hormone receptor 1 imaging?” (EJNMMI Research, 2016).
Marks after values point to notes of the source that are not given here.

Experiments:
[1] = Blood metabolite analysis by radio-TLC; assay type: in vivo, Sprague-Dawley rats; conditions: 45 min after tracer application, baseline group, n = 3, plasma
Description: For analysis of potential circulating metabolites, blood samples from the baseline group were collected into heparinized tubes and immediately stored on ice before processing. The blood was centrifuged (Hettich Rotanta/TRC; 3400×g, 4 min) to separate cellular components. Sample cleanup was performed by vortexing plasma with the equivalent amount of acetonitrile and by subsequent centrifugation (Hettich Universal 30RF; 23,000×g, 3 min) to remove precipitated proteins. The obtained supernatant was applied to radio-thin-layer chromatography (radio-TLC silica gel plates, mobile phase acetonitrile/water 70/30 v/v, application volume 2 μL on origin) and analysed via a Canberra-Packard Instant Imager.

MCHR1 [2] = molecular target: T1, MCHR1 (Rattus norvegicus, UniProt P97639); experiment: Preliminary small-animal PET/MR imaging; assay type: in vivo; parameters: from tissue; host or cells: living rat (in vivo PET imaging); conditions: healthy anaesthetized rat, baseline conditions, tail vein bolus
Description: An anaesthetized rat (with 1.5–2.5 % isoflurane) was immobilized in a multimodal animal carrier unit (MACU; medres®—medical research GmbH, Cologne, Germany) and maintained at a body temperature of 37 °C throughout the whole experiment. [^18F]FE@SNAP (47.64 ± 1.23 MBq) was injected as a bolus via the lateral tail vein, and dynamic PET imaging (Siemens Inveon preclinical μPET/SPECT/CT system) was performed over 60 min. Immediately afterwards, T1-weighted high-resolution axial, coronary and sagittal brain MRI scans were performed using a Bruker BioSpec 94/30 USR small-animal MR system (Bruker BioSpin GmbH, Karlsruhe, Germany).

[3] = Biodistribution 45 min after IV injection; assay type: in vivo, Sprague-Dawley rats; conditions: rats, 45 min after injection
Description: (§1) Conscious and freely moving rats of the baseline and blocking groups were always examined simultaneously: rats of the baseline group (n = 3) received vehicle (400 μL), and rats of the blocking group (n = 3) received SNAP-7941 (15 mg/kg; freshly dissolved in 400 μL) via the jugular vein 30 min prior to tracer application. Via the jugular vein, 51.33 ± 26.2 MBq of [^18F]FE@SNAP (specific activity 12.3–43.1 GBq/μmol; radiochemical purity ≥95 %; 30–100 μL) was then administered to all rats. After 45 min, rats were sacrificed by IV ketamine injection and decapitated, and the brains were removed and immediately quick frozen in isopentane (−45 °C) for ex vivo autoradiography. Other organs including the eyes, tongue, muscle, epidermal white adipose tissue (WATep), heart, lung, stomach, pancreas, liver, duodenum, colon, spleen, kidneys, adrenals, testis, bladder and bone as well as blood and urine were removed, weighed and measured in a gamma counter (2480 WIZARD^2, PerkinElmer). Radioactivity concentrations were normalized to dose and weight and expressed as percent injected dose per gram (%ID/g). To determine significant differences, a two-tailed t test with […] was performed using the statistics add-on in Microsoft Excel® 2013. A value of P < 0.05 was considered as significant.

MCHR1 [4] = molecular target: T1, MCHR1; experiment: Ex vivo brain autoradiography after IV injection into the jugular vein of awake rats; assay type: in vivo, Sprague-Dawley rats; parameters: from tissue; host or cells: rat brain (hypothalamus, ventricular system) and peripheral organs after in vivo injection; conditions: for Ratio Hypothalamus/non-target / Ratio Ventricle/non-target: ratio of ROIs (DLU/mm^2), 45 min after injection, n = 3
Description: as §1
Whole rat brains (n = 6) were cut in a cryo-microtome (Microm HM 560, Thermo Scientific) into 50-μm-thick slices and thaw-mounted onto superfrost slides (Menzel-Gläser SUPERFROST® PLUS, Thermo Scientific). Samples were placed on Phosphor Imager plates (Multisensitive Phosphor Screens Long Type MS, PPN 7001724, PerkinElmer) for an exposure period of 18 h and then analysed with a Cyclone Phosphor Imager (Cyclone Plus Storage Phosphor System, PerkinElmer). Data analysis was performed with OptiQuant® data processing software Version 5.0. Due to high-MCHR1 appearance, special emphasis was laid on the hypothalamus and the ventricular system. […] To facilitate comparison, manually defined template ROIs fitting to all slices (30 slices/brain; bregma −1.0 to −2.5 mm) were applied. […] In detail, ratios of hypothalamus/non-target and ventricle/non-target were calculated. Significant differences were calculated as described before.
Fig. 2 Scheme of the ROIs for calculation of ratios. 1 (yellow): ventricular system; 2 (green): hypothalamic area; 3 (pink): non-target region; and 4 (orange): whole brain. It is noteworthy that ROIs 1 and 2 include the target areas as well as some background areas, due to varying target size throughout the different brain levels (bregma)

human MCHR1 = molecular target: human MCHR1; parameters: method as in PMID 24106662; conditions: CHO cells expressing the human MCHR1; cited from earlier work
MCHR2 = molecular target: MCHR2; parameters: method as in PMID 24106662; conditions: second MCH receptor; cited from earlier work
[5] = blocking with SNAP-7941 15 mg/kg 30 min prior

T1 sequence (P97639 whole entry): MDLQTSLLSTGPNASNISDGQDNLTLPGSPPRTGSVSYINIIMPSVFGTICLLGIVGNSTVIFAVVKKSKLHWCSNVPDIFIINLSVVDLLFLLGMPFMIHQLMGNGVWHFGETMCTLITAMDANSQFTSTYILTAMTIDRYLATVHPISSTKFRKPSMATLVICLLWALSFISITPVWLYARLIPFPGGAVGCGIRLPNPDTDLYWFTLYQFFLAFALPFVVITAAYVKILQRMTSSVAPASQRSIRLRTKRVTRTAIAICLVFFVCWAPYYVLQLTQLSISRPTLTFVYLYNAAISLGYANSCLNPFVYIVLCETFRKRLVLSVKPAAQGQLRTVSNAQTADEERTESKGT

In the case of `COCC1=C(C(=O)OCC[18F])C(c2ccc(F)c(F)c2)N(C(=O)NCCCN2CCC(c3cccc(NC(C)=O)c3)CC2)C(=O)N1` (stereo not shown) [[^18F]FE@SNAP], the “parent compound in the blood” value [1] is reported as 51.50 ± 5.5%, the “tracer uptake in brain (small-animal PET)” value (MCHR1 [2]) is reported as “high tracer uptake in the ventricular system” and the “defluorination / uptake of ^18F-fluoride into the bone” value [3] is reported as “no defluorination”. For the same compound, the “Ratio Hypothalamus/non-target” value (MCHR1 [4]; baseline (vehicle)) was 2.14 ± 0.9, the “Ratio Ventricle/non-target” value (MCHR1 [4]; baseline (vehicle)) was 2.20 ± 0.4 and the “whole-brain uptake, blocking group versus baseline animals” value (MCHR1 [4]; blocking with 15 mg/kg SNAP-7941, n = 3 per group) was “significantly higher”. The “Ratio Hypothalamus/non-target” value (MCHR1 [4]; [5]) was 1.58 ± 0.5^a, the “Ratio Ventricle/non-target” value (MCHR1 [4]; [5]) was 1.38 ± 0.2^a and the Kd (human MCHR1) was 2.9 nM. For the same compound, the Ki (MCHR2) was over 1000 nM.
